From publication PMC10281575, “PfCRT mutations conferring piperaquine resistance in falciparum malaria shape the kinetics of quinoline drug binding and transport” (PLOS Pathogens, 2023)
Positions count from the first letter of the chain named. Several values for one entry are separate records, joined by “and”; a condition that tells them apart may be missing. Identical values can stand only once.

Legend:
PfCRT^Dd2_M343L = biological target: T1, PfCRT^Dd2_M343L (Plasmodium falciparum, UniProt Q8IBZ9, A220S/I356T/K76T/M343L/M74I/N326S/N75E/Q271E/R371I); experiment: Radiolabeled drug uptake in X. laevis oocytes expressing PfCRT^Dd2_M343L; format: cell-based
T1 construct: expressed in transfected cells; host or cells: Xenopus laevis oocytes injected with in vitro transcribed RNA (pSP64T)
T1 sequence (Q8IBZ9 1-424 M74I/N75E/K76T/A220S/Q271E/N326S/M343L/I356T/R371I): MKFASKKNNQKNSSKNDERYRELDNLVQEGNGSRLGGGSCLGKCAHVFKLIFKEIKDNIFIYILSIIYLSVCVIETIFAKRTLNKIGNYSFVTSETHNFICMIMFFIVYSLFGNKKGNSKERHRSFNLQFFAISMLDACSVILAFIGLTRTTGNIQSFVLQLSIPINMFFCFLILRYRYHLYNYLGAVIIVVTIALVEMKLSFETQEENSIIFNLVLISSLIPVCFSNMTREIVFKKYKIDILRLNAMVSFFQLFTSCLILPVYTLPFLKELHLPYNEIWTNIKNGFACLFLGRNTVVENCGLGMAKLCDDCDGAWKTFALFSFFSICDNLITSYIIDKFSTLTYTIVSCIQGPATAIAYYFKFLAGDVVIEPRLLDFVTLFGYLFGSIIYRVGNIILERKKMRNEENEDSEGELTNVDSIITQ
Excerpt: (§1) A codon-optimized coding sequence of the Dd2 isoform of PfCRT (PfCRT^Dd2) was subcloned into the pSP64T expression vector [21]. To generate the necessary mutations to introduce the amino acid substitutions H97Y, F145I, M343L or G353V into the pfcrt sequence, the overlap extension method was used. A region from the 5’-untranslated Xenopus β-globin sequence to the respective 3’ region, containing the full length pfcrt coding sequence, was amplified using the following primer pairs: for the H97Y mutation, numbers 1/4 and 2/3; for the F145I mutation, numbers 1/6 and 2/5; for the M343L mutation, numbers 1/8 and 2/7; and for the G353V mutation, numbers 1/10 and 2/9 (for primers, see S2 Table). Both PCR products were used as template for amplification of the final product using primers number 1/2. The resulting fragment was cloned into the pSP64T expression vector, and the presence of the desired mutation was confirmed by sequencing.
(§2) Adult female X. laevis frogs (purchased from NASCO) were anesthetized by submersion in a solution of 0.3% (w/v) 3-amino benzoate methanesulfonate for 15 min. Sections of the ovary were surgically removed and placed in Ca^2+-free ND96 buffer supplemented with 0.1% collagenase D (w/v; Roche), 0.5% BSA (w/v) and 9 mM Na2HPO4 at 18°C for 14–16 h while gently shaking. The oocytes were then washed several times with ND96 buffer (5 mM HEPES, pH 7.5, 96 mM NaCl, 2 mM KCl, 1.8 mM CaCl2, 1 mM MgCl2), supplemented with […] gentamycin. Healthy-looking stage V-VI oocytes were manually selected and randomly grouped for injection. A codon-optimized coding sequence of PfCRT was subcloned into the pSP64T expression vector and subsequently linearized using the restriction endonuclease BamHI or SalI (New England Biolabs GmbH). RNA for injection was transcribed in vitro using the mMESSAGE mMACHINE SP6 Transcription kit (Ambion), diluted with nuclease-free water to a final concentration of 0.6 μg/μL and stored at -80°C. RNA was injected using precision-bore glass capillary tubes (3.5-inch glass capillaries; Drummond Scientific Co.), which were pulled on a vertical puller (P-87 Flaming/Brown micropipette puller, Sutter Instrument Co.) and graduated. The micropipettes were connected to a microinjector (Nanoject II Auto-Nanoliter Injector, Drummond Scientific Co.). Injection was conducted under stereomicroscopic control. 50 nL of nuclease-free water alone (control oocytes) or 50 nL of nuclease-free water containing 30 ng of RNA was injected per oocyte. Injected oocytes were kept for 72 h at 18°C in ND96 buffer with two daily buffer changes before being used for further experiments.
(§3) Drug transport assays were performed as previously described. Briefly, measurements of radiolabeled drug uptake were made over 1 h, unless otherwise specified. […] Where specified, one or more unlabeled drugs were also present at the indicated concentrations. […] The uptake assays were terminated by removing the oocytes from the reaction medium and washing them three times with 2 mL of ice-cold ND96 buffer. Each oocyte was transferred to a separate scintillation vial and lysed by the addition of 200 μL of a 5% SDS solution. The radioactivity in the sample was measured using a liquid scintillation analyser Tri-Carb 4910 TR (PerkinElmer). Water-injected oocytes were analyzed in parallel as a negative control. The buffer from each condition was measured in duplicate in parallel to each experiment to transform counts per minute into pmol of drug. Drug uptake attributable to PfCRT was determined by subtracting the background uptake from water-injected oocytes from that of PfCRT-expressing oocytes. In all cases, at least three independent experiments were performed on oocytes from different frogs, and for each condition in an experiment, measurements were made from 10 oocytes per treatment.

PfCRT^Dd2_G353V = biological target: T2, PfCRT^Dd2_G353V (Plasmodium falciparum, UniProt Q8IBZ9, A220S/G353V/I356T/K76T/M74I/N326S/N75E/Q271E/R371I); experiment: Radiolabeled drug uptake in X. laevis oocytes expressing PfCRT^Dd2_G353V; format: cell-based
T2 construct: expressed in transfected cells; host or cells: Xenopus laevis oocytes injected with in vitro transcribed RNA (pSP64T)
T2 sequence (Q8IBZ9 1-424 M74I/N75E/K76T/A220S/Q271E/N326S/G353V/I356T/R371I): T1 sequence (Q8IBZ9 1-424 M74I/N75E/K76T/A220S/Q271E/N326S/M343L/I356T/R371I) with L343M, G353V
Excerpt: as §1, §2, §3

[1] = Michaelis-Menten fit, 10-500 μM drug, pH 6
[2] = Michaelis-Menten fit, 10-500 μM drug, pH 6, read-out: KM, Michaelis constant

## CCN(CC)CCCC(C)Nc1ccnc2cc(Cl)ccc12 (stereo not drawn) [CQ, chloroquine]
PfCRT^Dd2_M343L; 10 µM CQ, single replicates
  PfCRTDd2_M343L-mediated CQ uptake at 10 µM CQ: 1.16 pmol oocyte-1 h-1 and 0.62 pmol oocyte-1 h-1 and 0.22 pmol oocyte-1 h-1
PfCRT^Dd2_M343L; 50 µM CQ, single replicates
  PfCRTDd2_M343L-mediated CQ uptake at 50 µM CQ: 2.13 pmol oocyte-1 h-1 and 3.20 pmol oocyte-1 h-1 and 2.38 pmol oocyte-1 h-1 and 2.37 pmol oocyte-1 h-1
PfCRT^Dd2_M343L; 100 µM CQ, single replicates
  PfCRTDd2_M343L-mediated CQ uptake at 100 µM CQ: 5.08 pmol oocyte-1 h-1 and 4.43 pmol oocyte-1 h-1 and 5.13 pmol oocyte-1 h-1
PfCRT^Dd2_M343L; 300 µM CQ, single replicates
  PfCRTDd2_M343L-mediated CQ uptake at 300 µM CQ: 10.45 pmol oocyte-1 h-1 and 11.10 pmol oocyte-1 h-1 and 13.47 pmol oocyte-1 h-1
PfCRT^Dd2_M343L; 500 µM CQ, single replicates
  PfCRTDd2_M343L-mediated CQ uptake at 500 µM CQ: 14.93 pmol oocyte-1 h-1 and 14.77 pmol oocyte-1 h-1 and 15.77 pmol oocyte-1 h-1
PfCRT^Dd2_M343L; [1]
  Vmax, maximal velocity of drug transport: 31 ± 2 pmol oocyte^-1 h^-1
PfCRT^Dd2_G353V; 10 µM CQ, single replicates
  PfCRTDd2_G353V-mediated CQ uptake at 10 µM CQ: 0.74 pmol oocyte-1 h-1 and 0.50 pmol oocyte-1 h-1 and 0.07 pmol oocyte-1 h-1
PfCRT^Dd2_G353V; 50 µM CQ, single replicates
  PfCRTDd2_G353V-mediated CQ uptake at 50 µM CQ: 4.74 pmol oocyte-1 h-1 and 5.01 pmol oocyte-1 h-1 and 2.88 pmol oocyte-1 h-1 and 3.92 pmol oocyte-1 h-1 and 4.76 pmol oocyte-1 h-1
PfCRT^Dd2_G353V; 100 µM CQ, single replicates
  PfCRTDd2_G353V-mediated CQ uptake at 100 µM CQ: 7.26 pmol oocyte-1 h-1 and 6.49 pmol oocyte-1 h-1 and 5.26 pmol oocyte-1 h-1
PfCRT^Dd2_G353V; 300 µM CQ, single replicates
  PfCRTDd2_G353V-mediated CQ uptake at 300 µM CQ: 16.30 pmol oocyte-1 h-1 and 8.52 pmol oocyte-1 h-1 and 8.09 pmol oocyte-1 h-1
PfCRT^Dd2_G353V; 500 µM CQ, single replicates
  PfCRTDd2_G353V-mediated CQ uptake at 500 µM CQ: 17.15 pmol oocyte-1 h-1 and 14.95 pmol oocyte-1 h-1 and 14.10 pmol oocyte-1 h-1
PfCRT^Dd2_G353V; [1]
  Vmax, maximal velocity of drug transport: 23 ± 3 pmol oocyte^-1 h^-1

## Clc1ccc2c(N3CCN(CCCN4CCN(c5ccnc6cc(Cl)ccc56)CC4)CC3)ccnc2c1 [PPQ, piperaquine]
PfCRT^Dd2_M343L; 10 µM PPQ, single replicates
  PfCRTDd2_M343L-mediated PPQ uptake at 10 µM PPQ: 13.08 pmol oocyte-1 h-1 and 6.84 pmol oocyte-1 h-1 and 2.69 pmol oocyte-1 h-1
PfCRT^Dd2_M343L; 50 µM PPQ, single replicates
  PfCRTDd2_M343L-mediated PPQ uptake at 50 µM PPQ: 84.22 pmol oocyte-1 h-1 and 103.15 pmol oocyte-1 h-1 and 60.92 pmol oocyte-1 h-1 and 65.48 pmol oocyte-1 h-1 and 62.52 pmol oocyte-1 h-1 and 18.03 pmol oocyte-1 h-1
PfCRT^Dd2_M343L; 100 µM PPQ, single replicates
  PfCRTDd2_M343L-mediated PPQ uptake at 100 µM PPQ: 130.36 pmol oocyte-1 h-1 and 98.93 pmol oocyte-1 h-1 and 50.24 pmol oocyte-1 h-1
PfCRT^Dd2_M343L; 300 µM PPQ, single replicates
  PfCRTDd2_M343L-mediated PPQ uptake at 300 µM PPQ: 154.89 pmol oocyte-1 h-1 and 102.01 pmol oocyte-1 h-1 and 116.02 pmol oocyte-1 h-1
PfCRT^Dd2_M343L; 500 µM PPQ, single replicates
  PfCRTDd2_M343L-mediated PPQ uptake at 500 µM PPQ: 164.14 pmol oocyte-1 h-1 and 130.73 pmol oocyte-1 h-1 and 130.95 pmol oocyte-1 h-1
PfCRT^Dd2_M343L; [2]
  Km: 80 ± 16 µM
PfCRT^Dd2_G353V; 10 µM PPQ, single replicates
  PfCRTDd2_G353V-mediated PPQ uptake at 10 µM PPQ: 5.31 pmol oocyte-1 h-1 and 5.17 pmol oocyte-1 h-1 and 3.93 pmol oocyte-1 h-1
PfCRT^Dd2_G353V; 50 µM PPQ, single replicates
  PfCRTDd2_G353V-mediated PPQ uptake at 50 µM PPQ: 29.38 pmol oocyte-1 h-1 and 45.38 pmol oocyte-1 h-1 and 21.36 pmol oocyte-1 h-1 and 40.00 pmol oocyte-1 h-1 and 56.34 pmol oocyte-1 h-1 and 56.46 pmol oocyte-1 h-1 and 95.52 pmol oocyte-1 h-1 and 62.83 pmol oocyte-1 h-1
PfCRT^Dd2_G353V; 100 µM PPQ, single replicates
  PfCRTDd2_G353V-mediated PPQ uptake at 100 µM PPQ: 105.67 pmol oocyte-1 h-1 and 52.72 pmol oocyte-1 h-1 and 63.14 pmol oocyte-1 h-1
PfCRT^Dd2_G353V; 300 µM PPQ, single replicates
  PfCRTDd2_G353V-mediated PPQ uptake at 300 µM PPQ: 116.72 pmol oocyte-1 h-1 and 65.87 pmol oocyte-1 h-1 and 109.27 pmol oocyte-1 h-1
PfCRT^Dd2_G353V; 500 µM PPQ, single replicates
  PfCRTDd2_G353V-mediated PPQ uptake at 500 µM PPQ: 126.72 pmol oocyte-1 h-1 and 99.20 pmol oocyte-1 h-1 and 126.01 pmol oocyte-1 h-1
PfCRT^Dd2_G353V; [2]
  Km: 90 ± 20 µM
